Data: patent US20240300977A1, “INHIBITORS OF DNA-DEPENDENT PROTEIN KINASE AND COMPOSITIONS AND USES THEREOF” (Intellia Therapeutics, Inc., priority 2021, published 2024)
“And” between values parts separate entries of the source, which are not always exact repeats. Equal values may be shown once.

Key:
T cells [1] = assay: Fold T cell expansion following TRBC/TRAC editing with WT1-TCR AAV and DNA-PK inhibitors; conditions: Table 4
T cells [2] = assay: TRAC LNP editing and GFP insertion in activated T cells with DNA-PK inhibitors, flow cytometry; conditions: day 5 post-edit; for Mean % CD3^−/GFP+ Cells (n = 3): GFP positive of the CD3 negative T cells; for Mean % CD3^− Cells (n = 3): TRAC LNP + GFP AAV
697 ALL cells (697-luc2) [3] = assay: WT1 TCR T cell mediated cytotoxicity, luciferase assay; assay type: cell-based, human; conditions: WT1-T cells (HD1) engineered with inhibitor, 48h, duplicate values
Description: (§1) The ability of WT1-TCR T cells engineered from donors 007HD and 008HD to kill hematological cancer cells expressing natural levels of WT1 and release cytokines was evaluated. TCR KO cells generated as described above but without TRAC/AAV addition were used as a negative, non-killing control. Briefly, T cells were co-cultured with luciferase expressing 697 ALL cells (697-luc2), or K562-luc2 cells transduced to express HLA-A*02:01 (K5692-HLA-A*02:01-luc2) at various effector to target (E:T) ratios (2:1, 1:1, 0.5:1) in TCEM without the addition of IL-2, IL-7, or IL-15. […] After 24h of co-culture, supernatants from the 2:1 E:T ratio group were harvested and used in an MSD U/R-PLEX assay to quantify IL-2, TNFα, IFNγ, and Granzyme B following manufacturers protocol (Mesoscale Discovery). After 48h of co-culture luciferase activity was quantified using the Bright-GLO Luciferase Assay System (Promega) in relative luminescence units (RLU). Percent specific lysis was determined using the formula:
(§2) % Specific Lysis=100−((RLU[Experimental Well]/RLU[Target Only Well])*100)

[4] = system: K562-luc2 cells transduced to express HLA-A*02:01; assay: as above; assay type: cell-based, human; conditions: WT1-T cells (HD1) engineered with inhibitor, K562-HLA-A*02:01, 48h, duplicate values
Description: as §1, §2

697 ALL cells (697-luc2) [5] = assay: Cytokine release by WT1 TCR T cells, MSD U/R-PLEX; assay type: cell-based, human; parameters: unit not given here; conditions: 2:1 E:T, 24h supernatant, T cells engineered with inhibitor, duplicate values
Description: as §1, with “formula: […]” for “formula:”

[6] = system: K562-luc2 cells transduced to express HLA-A*02:01; assay: Cytokine release by WT1 TCR T cells, MSD U/R-PLEX; assay type: cell-based, human; parameters: unit not given here; conditions: K562-HLA-A2.1, 2:1 E:T, 24h supernatant, T cells engineered with inhibitor, duplicate values
Description: as §1, with “formula: […]” for “formula:”

T cells [7] = assay: Off-target structural variation by UnIT; assay type: cell-based, human; conditions: T cells from Example 12, day 8 post-editing; TRAC sgRNA G013006
From the text: (§3) On day 8 post-editing, T cells from Example 12 from the untreated, unedited, Compound 3 and Compound 4 guides samples were collected, spun down and the pellets were directly used as input material for gDNA isolation using “Zymo Quick DNA/RNA Mag Beads Kit” (Zymo Cat. R2131). The UnIT structural variant characterization assay was applied to these gDNA samples. High molecular weight genomic DNA is simultaneously fragmented and sequence-tagged (‘tagmented’) with the Tn5 transposase and an adapter with a partial Illumina P5 sequence and a 12 bp unique molecular identifier (UMI). Two sequential PCRs using a primer to P5 and hemi-nested gene specific primers (GSP) imparting the Illumina the P7 sequence to create two Illumina compatible NGS libraries per sample (Illumina, Ref 15033624). Sequencing across both directions of the CRISPR/Cas9 targeted cut site with the two libraries allows the inference and quantification of structural variants in DNA repair outcomes after genome editing. If the two fragments were aligned to different chromosomes, the SV was classified as an “inter-chromosomal translocation.” The magnitude of structural variation was shown in FIG. 9A and Table 18.

T cells [8] = assay: Insertion percent in T cells of Example 17; assay type: cell-based, human; conditions: T cells from Example 12; FIG. 9B
From the text: as §3

TRAC = conditions: human
TRBC = assay: Off-target site validation, rhAmpSeq; conditions: gRNA G016239 targeting TRBC; of 92 off-target sites; with the named DNA-PKI or none

For `Cc1cc2ncnn2cc1Nc1cc2c(cn1)n(C)c(=O)n2C1CCOCC1` [Compound 6, 3-methyl-6-((7-methyl-[1,2,4]triazolo[1,5-a]pyridin-6-yl)amino)-1-(tetrahydro-2H-pyran-4-yl)-1,3-dihydro-2H-imidazo[4,5-c]pyridin-2-one], the “impact of T cell expansion by DNA-PK treatment” value (“impact of T cell expansion” below) (T cells [1]) was “no impact”, the “Mean % CD3^−/GFP+ Cells (n = 3)” value (T cells [2]; compound 0.0625 uM) was 35.10% and the “Mean % CD3^− Cells (n = 3)” value (T cells [2]; compound 0.0625 uM) was 33.87%. The “Mean % CD3^−/GFP+ Cells (n = 3)” value (T cells [2]; compound 1 uM) was 74.40% and the “Mean % CD3^− Cells (n = 3)” value (T cells [2]; compound 1 uM) was 58.30%.
For `CCn1c(=O)n(C2CCOCC2)c2nc(Nc3cn4ncnc4cc3C)ncc21` [Compound 2, 7-ethyl-2-((7-methyl-[1,2,4]triazolo[1,5-a]pyridin-6-yl)amino)-9-(tetrahydro-2H-pyran-4-yl)-7,9-dihydro-8H-purin-8-one], the “Mean % CD3^−/GFP+ Cells (n = 3)” value (T cells [2]; compound 0.0625 uM) was 47.93% and the “Mean % CD3^−/GFP+ Cells (n = 3)” value (T cells [2]; compound 1 uM) was 79.40%.
`Cc1cc2ncnn2c(C)c1Nc1ncc2c(n1)n(C1CCOCC1)c(=O)n2C` [Compound 8, 2-((5,7-dimethyl-[1,2,4]triazolo[1,5-a]pyridin-6-yl)amino)-7-methyl-9-(tetrahydro-2H-pyran-4-yl)-7,9-dihydro-8H-purin-8-one] was tested, and the “impact of T cell expansion” value (T cells [1]) was “no impact”, the “Mean % CD3^−/GFP+ Cells (n = 3)” value (T cells [2]; compound 0.0625 uM) was 32.23% and the “Mean % CD3^−/GFP+ Cells (n = 3)” value (T cells [2]; compound 1 uM) was 70.07%.
With `Cc1cc2ncnn2c(C)c1Nc1cc2c(cn1)n(C)c(=O)n2C1CCOCC1` [Compound 7, 6-((5,7-dimethyl-[1,2,4]triazolo[1,5-a]pyridin-6-yl)amino)-3-methyl-1-(tetrahydro-2H-pyran-4-yl)-1,3-dihydro-2H-imidazo[4,5-c]pyridin-2-one] the “impact of T cell expansion” value (T cells [1]) was “no impact”, the “Mean % CD3^−/GFP+ Cells (n = 3)” value (T cells [2]; compound 0.0625 uM) was 29.90% and the “Mean % CD3^−/GFP+ Cells (n = 3)” value (T cells [2]; compound 1 uM) was 43.43%.
`Cc1cc2ncnn2cc1Nc1ncc2c(n1)n(C1CC(O)C1)c(=O)n2C` (stereo not shown) [Compound 5, 9-(3-hydroxycyclobutyl)-7-methyl-2-((7-methyl-[1,2,4]triazolo[1,5-a]pyridin-6-yl)amino)-7,9-dihydro-8H-purin-8-one] was tested, and the “Mean % CD3^−/GFP+ Cells (n = 3)” value (T cells [2]; compound 0.0625 uM) was 53.00% and the “Mean % CD3^−/GFP+ Cells (n = 3)” value (T cells [2]; compound 1 uM) was 78.97%.
With `Cc1cc2ncnn2cc1Nc1ncc2c(c1C)n(C1CCOCC1)c(=O)n2C` [Compound 9, 3,7-dimethyl-6-((7-methyl-[1,2,4]triazolo[1,5-a]pyridin-6-yl)amino)-1-(tetrahydro-2H-pyran-4-yl)-1,3-dihydro-2H-imidazo[4,5-c]pyridin-2-one] the “Mean % CD3^−/GFP+ Cells (n = 3)” value (T cells [2]; compound 0.0625 uM) was 28.27% and the “Mean % CD3^−/GFP+ Cells (n = 3)” value (T cells [2]; compound 1 uM) was 27.83%.
With `Cc1cc2ncnn2cc1Nc1ncc2c(n1)n(C1CCOCC1)c(=O)n2C` [Compound 1, 7-methyl-2-((7-methyl-[1,2,4]triazolo[1,5-a]pyridin-6-yl)amino)-9-(tetrahydro-2H-pyran-4-yl)-7,9-dihydro-8H-purin-8-one] the Percent specific lysis (697 ALL cells (697-luc2) [3]; E:T 0.5, donor 007HD) was 12.14% and 5.54%, the Percent specific lysis (697 ALL cells (697-luc2) [3]; E:T 0.5, donor 008HD) was 43.47% and 44.29% and the Percent specific lysis (697 ALL cells (697-luc2) [3]; E:T 1, donor 007HD) was 29.28% and 30.44%. The Percent specific lysis (697 ALL cells (697-luc2) [3]; E:T 1, donor 008HD) was 77.92% and 81.24%, the Percent specific lysis (697 ALL cells (697-luc2) [3]; E:T 2, donor 007HD) was 65.54% and 61.43% and the Percent specific lysis (697 ALL cells (697-luc2) [3]; E:T 2, donor 008HD) was 98.09% and 98.25%. For the same compound, the Percent specific lysis ([4]; E:T 0.5, donor 007HD) was 37.10% and 36.80%, the Percent specific lysis ([4]; E:T 0.5, donor 008HD) was 56.76% and 58.18% and the Percent specific lysis ([4]; E:T 1, donor 007HD) was 69.32% and 70.95%. For the same compound, the Percent specific lysis ([4]; E:T 1, donor 008HD) was 83.56% and 79.54%, the Percent specific lysis ([4]; E:T 2, donor 007HD) was 95.40% and 92.50% and the Percent specific lysis ([4]; E:T 2, donor 008HD) was 99.29% and 99.66%.
`Cc1cc2ncnn2cc1Nc1ncc2c(n1)n(C1CCC(F)(F)CC1)c(=O)n2C` [Compound 3, 9-(4,4-difluorocyclohexyl)-7-methyl-2-((7-methyl-[1,2,4]triazolo[1,5-a]pyridin-6-yl)amino)-7,9-dihydro-8H-purin-8-one] was tested, and the Percent specific lysis (697 ALL cells (697-luc2) [3]; E:T 0.5, donor 007HD) was 4.60% and 2.72%, the Percent specific lysis (697 ALL cells (697-luc2) [3]; E:T 0.5, donor 008HD) was 63.10% and 72.62% and the Percent specific lysis (697 ALL cells (697-luc2) [3]; E:T 1, donor 007HD) was 39.43% and 30.39%. For the same compound, the Percent specific lysis (697 ALL cells (697-luc2) [3]; E:T 1, donor 008HD) was 95.29% and 94.31%, the Percent specific lysis (697 ALL cells (697-luc2) [3]; E:T 2, donor 007HD) was 77.64% and 65.49% and the Percent specific lysis (697 ALL cells (697-luc2) [3]; E:T 2, donor 008HD) was 98.98% and 98.97%. For the same compound, the Percent specific lysis ([4]; E:T 0.5, donor 007HD) was 47.03% and 41.52%, the Percent specific lysis ([4]; E:T 0.5, donor 008HD) was 72.45% and 71.77% and the Percent specific lysis ([4]; E:T 1, donor 007HD) was 78.53% and 75.83%. The Percent specific lysis ([4]; E:T 1, donor 008HD) was 98.67% and 99.08%, the Percent specific lysis ([4]; E:T 2, donor 007HD) was 98.79% and 96.99% and the Percent specific lysis ([4]; E:T 2, donor 008HD) was 99.96% and 99.84%. The “Granzyme B” value (697 ALL cells (697-luc2) [5]; donor 007HD) was 1441.06 and 1664.25, the IFN-gamma (697 ALL cells (697-luc2) [5]; donor 007HD) was 923.97 and 977.71 and the IL-2 (697 ALL cells (697-luc2) [5]; donor 007HD) was 2.23 and 4.32. The TNF-alpha (697 ALL cells (697-luc2) [5]; donor 007HD) was 5.29 and 3.46, the “Granzyme B” value (697 ALL cells (697-luc2) [5]; donor 008HD) was 1777.28 and 1609.68 and the IFN-gamma (697 ALL cells (697-luc2) [5]; donor 008HD) was 7169.43 and 6733.05. The IL-2 (697 ALL cells (697-luc2) [5]; donor 008HD) was 8.1 and 7.14, the TNF-alpha (697 ALL cells (697-luc2) [5]; donor 008HD) was 18.57 and 16.3 and the “Granzyme B” value ([6]; donor 007HD) was 17178.54 and 20713.6. The IFN-gamma ([6]; donor 007HD) was 41527.06 and 59686.42, the TNF-alpha ([6]; donor 007HD) was 66.56 and 73.76 and the “Granzyme B” value ([6]; donor 008HD) was 17134.42 and 18197.02. The IFN-gamma ([6]; donor 008HD) was 200584.6 and 216197.4, the IL-2 ([6]; donor 008HD) was 484.52 and 524.89 and the TNF-alpha ([6]; donor 008HD) was 302.06 and 324.18. For the same compound, the “Unintended Structural Variance (Average)” value (T cells [7]) was 1.30%, the “Insertion Percent (Average)” value (T cells [8]) was 68.35% and the “Sites Validated” value (TRAC) was 0. The “Sites Validated” value (TRBC) was 0, the “Mean % CD3^−/GFP+ Cells (n = 3)” value (T cells [2]; compound 0.0625 uM) was 75.50% and the “Mean % CD3^− Cells (n = 3)” value (T cells [2]; compound 0.0625 uM) was 50.73%. For the same compound, the “Mean % CD3^−/GFP+ Cells (n = 3)” value (T cells [2]; compound 1 uM) was 79.60% and the “Mean % CD3^− Cells (n = 3)” value (T cells [2]; compound 1 uM) was 58.90%.
